Experimental data taken from the NIST ThermoML archive (doi:10.1021/acs.jced.8b00153).
Several values for one entry are separate records, joined by “and”; a condition that tells them apart may be missing. Equal values may be shown once.

Conditions: for surface tension liquid-gas: Drop volume; for viscosity / speed of sound / mass density / vapor or sublimation pressure: Liquid; for viscosity: Capillary tube (Ostwald / Ubbelohde) method; for speed of sound: Frequency=3 MHz, Single path-length method; for mass density: Vibrating tube method; for vapor or sublimation pressure: Ebulliometric method (Recirculating still)

CCc1cccs1 [2-ethylthiophene]
Conditions	surface tension liquid-gas [mN/m]	vapor or sublimation pressure [kPa]
278.15 K	32.36	–
280.65 K	32.11	–
283.15 K	31.8	–
285.65 K	31.55	–
288.15 K	31.24	–
290.65 K	30.98	–
292.41 K	–	0.8
293.15 K	30.66	–
293.45 K	–	0.84
295.65 K	30.44	–
296.81 K	–	1.03
298.04 K	–	1.145
298.15 K	30.1	–
299.11 K	–	1.23
300.65 K	29.86	–
302.95 K	–	1.52
303.15 K	29.54	–
305.65 K	29.3	–
308.07 K	–	2.005
308.15 K	28.96	–
310.65 K	28.73	–
312.28 K	–	2.55
313.15 K	28.41	–

Conditions	mass density	speed of sound [m/s]	viscosity [mPa·s]
278.15 K, 100 kPa	1008.35 kg/m3	1373.2	0.9347
280.65 K, 100 kPa	1005.86 kg/m3	1363.4	0.905
283.15 K, 100 kPa	1003.44 kg/m3 and 1003.37 kg/m3	1354.2	0.8766
283.15 K, 2000 kPa	1004.84 kg/m3	–	–
283.15 K, 5000 kPa	1007 kg/m3	–	–
283.15 K, 7000 kPa	1008.42 kg/m3	–	–
283.15 K, 10000 kPa	1010.51 kg/m3	–	–
283.15 K, 15000 kPa	1013.9 kg/m3	–	–
283.15 K, 20000 kPa	1017.18 kg/m3	–	–
283.15 K, 25000 kPa	1020.37 kg/m3	–	–
283.15 K, 30000 kPa	1023.45 kg/m3	–	–
283.15 K, 35000 kPa	1026.45 kg/m3	–	–
283.15 K, 40000 kPa	1029.36 kg/m3	–	–
283.15 K, 45000 kPa	1032.2 kg/m3	–	–
283.15 K, 50000 kPa	1034.96 kg/m3	–	–
283.15 K, 55000 kPa	1037.65 kg/m3	–	–
283.15 K, 60000 kPa	1040.28 kg/m3	–	–
283.15 K, 65000 kPa	1042.84 kg/m3	–	–
285.65 K, 100 kPa	1000.87 kg/m3	1344.7	0.8498
288.15 K, 100 kPa	998.47 kg/m3 and 998.38 kg/m3	1334.1	0.8244
288.15 K, 2000 kPa	999.91 kg/m3	–	–
288.15 K, 5000 kPa	1002.13 kg/m3	–	–
288.15 K, 7000 kPa	1003.59 kg/m3	–	–
288.15 K, 10000 kPa	1005.73 kg/m3	–	–
288.15 K, 15000 kPa	1009.2 kg/m3	–	–
288.15 K, 20000 kPa	1012.57 kg/m3	–	–
288.15 K, 25000 kPa	1015.82 kg/m3	–	–
288.15 K, 30000 kPa	1018.97 kg/m3	–	–
288.15 K, 35000 kPa	1022.04 kg/m3	–	–
288.15 K, 40000 kPa	1025.03 kg/m3	–	–
288.15 K, 45000 kPa	1027.9 kg/m3	–	–
288.15 K, 50000 kPa	1030.72 kg/m3	–	–
288.15 K, 55000 kPa	1033.47 kg/m3	–	–
288.15 K, 60000 kPa	1036.14 kg/m3	–	–
288.15 K, 65000 kPa	1038.73 kg/m3	–	–
290.65 K, 100 kPa	995.88 kg/m3	1325	0.8003
293.15 K, 100 kPa	993.45 kg/m3 and 993.38 kg/m3	1315.3	0.7772
293.15 K, 2000 kPa	994.92 kg/m3	–	–
293.15 K, 5000 kPa	997.2 kg/m3	–	–
293.15 K, 7000 kPa	998.7 kg/m3	–	–
293.15 K, 10000 kPa	1000.9 kg/m3	–	–
293.15 K, 15000 kPa	1004.46 kg/m3	–	–
293.15 K, 20000 kPa	1007.92 kg/m3	–	–
293.15 K, 25000 kPa	1011.25 kg/m3	–	–
293.15 K, 30000 kPa	1014.49 kg/m3	–	–
293.15 K, 35000 kPa	1017.62 kg/m3	–	–
293.15 K, 40000 kPa	1020.67 kg/m3	–	–
293.15 K, 45000 kPa	1023.61 kg/m3	–	–
293.15 K, 50000 kPa	1026.49 kg/m3	–	–
293.15 K, 55000 kPa	1029.29 kg/m3	–	–
293.15 K, 60000 kPa	1032.01 kg/m3	–	–
293.15 K, 65000 kPa	1034.65 kg/m3	–	–
295.65 K, 100 kPa	990.88 kg/m3	1305.8	0.7554
298.15 K, 100 kPa	988.39 kg/m3 and 988.37 kg/m3	1295.8	0.7345
298.15 K, 2000 kPa	989.91 kg/m3	–	–
298.15 K, 5000 kPa	992.26 kg/m3	–	–
298.15 K, 7000 kPa	993.8 kg/m3	–	–
298.15 K, 10000 kPa	996.05 kg/m3	–	–
298.15 K, 15000 kPa	999.7 kg/m3	–	–
298.15 K, 20000 kPa	1003.24 kg/m3	–	–
298.15 K, 25000 kPa	1006.67 kg/m3	–	–
298.15 K, 30000 kPa	1009.97 kg/m3	–	–
298.15 K, 35000 kPa	1013.18 kg/m3	–	–
298.15 K, 40000 kPa	1016.3 kg/m3	–	–
298.15 K, 45000 kPa	1019.31 kg/m3	–	–
298.15 K, 50000 kPa	1022.24 kg/m3	–	–
298.15 K, 55000 kPa	1025.1 kg/m3	–	–
298.15 K, 60000 kPa	1027.87 kg/m3	–	–
298.15 K, 65000 kPa	1030.59 kg/m3	–	–
300.65 K, 100 kPa	985.87 kg/m3	1285.4	0.7148
303.15 K, 100 kPa	983.42 kg/m3 and 983.36 kg/m3	1276.5	0.696
303.15 K, 2000 kPa	984.97 kg/m3	–	–
303.15 K, 5000 kPa	987.39 kg/m3	–	–
303.15 K, 7000 kPa	988.98 kg/m3	–	–
303.15 K, 10000 kPa	991.3 kg/m3	–	–
303.15 K, 15000 kPa	995.04 kg/m3	–	–
303.15 K, 20000 kPa	998.67 kg/m3	–	–
303.15 K, 25000 kPa	1002.17 kg/m3	–	–
303.15 K, 30000 kPa	1005.54 kg/m3	–	–
303.15 K, 35000 kPa	1008.81 kg/m3	–	–
303.15 K, 40000 kPa	1012 kg/m3	–	–
303.15 K, 45000 kPa	1015.07 kg/m3	–	–
303.15 K, 50000 kPa	1018.07 kg/m3	–	–
303.15 K, 55000 kPa	1020.99 kg/m3	–	–
303.15 K, 60000 kPa	1023.81 kg/m3	–	–
303.15 K, 65000 kPa	1026.56 kg/m3	–	–
305.65 K, 100 kPa	980.85 kg/m3	1266.7	0.678
308.15 K, 100 kPa	978.38 kg/m3 and 978.33 kg/m3	1256.8	0.6606
308.15 K, 2000 kPa	979.99 kg/m3	–	–
308.15 K, 5000 kPa	982.48 kg/m3	–	–
308.15 K, 7000 kPa	984.11 kg/m3	–	–
308.15 K, 10000 kPa	986.49 kg/m3	–	–
308.15 K, 15000 kPa	990.33 kg/m3	–	–
308.15 K, 20000 kPa	994.05 kg/m3	–	–
308.15 K, 25000 kPa	997.63 kg/m3	–	–
308.15 K, 30000 kPa	1001.09 kg/m3	–	–
308.15 K, 35000 kPa	1004.45 kg/m3	–	–
308.15 K, 40000 kPa	1007.68 kg/m3	–	–
308.15 K, 45000 kPa	1010.84 kg/m3	–	–
308.15 K, 50000 kPa	1013.88 kg/m3	–	–
308.15 K, 55000 kPa	1016.86 kg/m3	–	–
308.15 K, 60000 kPa	1019.74 kg/m3	–	–
308.15 K, 65000 kPa	1022.56 kg/m3	–	–
310.65 K, 100 kPa	975.82 kg/m3	1246.5	0.6442
313.15 K, 100 kPa	–	–	0.6282
